Test results reported in publication PMC10329608, “Investigation of the structure-activity relationship at the N-terminal part of minigastrin analogs” (EJNMMI Research, 2023).
Entries after “also recorded” stand apart in the source; their conditions may differ. Like-named read-outs stand apart in the source and are kept apart here. Starred links: 1 amine or outer side, 2 acyl side, 3 side chain; linkers in the order of their positions; H or OH if unused. Non-standard residues stand in square brackets, D forms with d. Residues, ends and D or L forms follow the SMILES beside them. *: point of attachment. DOTA = O=C(O)CN1CCN(CC(=O)O)CCN(CC(=O)*)CCN(CC(=O)O)CC1; d(γGlu) = O=C(O)[C@@H](CCC(=O)[*:2])N[*:1]; 1Nal = N[C@@H](Cc1cccc2ccccc12)C(=O)O; 2Nal = N[C@@H](Cc1ccc2ccccc2c1)C(=O)O; PEG5 = NCCOCCOCCOCCOCCOCCC(=O)O; NMeNle = CCCC[C@H](NC)C(=O)O; Nle = CCCC[C@H](N)C(=O)O

Tests used:
[1] = target: T1, CCK-2R (Rattus norvegicus, UniProt P30553); assay: Competitive binding (IC50) on AR42J cells against [177Lu]Lu-DOTA-PP-F11N; conditions: for IC50 / CCK-2R affinity (in words): AR42J cells; for IC50: 3 h; for fold elevated IC50 value versus N-methylated tetrapeptides: B1 versus B3, B5 and B7 versus B3, B4 and B6; for CCK-2R affinity (in words): tetrapeptides
T1 construct: endogenous in cells; host or cells: AR42J cells
T1 sequence (P30553 1-452): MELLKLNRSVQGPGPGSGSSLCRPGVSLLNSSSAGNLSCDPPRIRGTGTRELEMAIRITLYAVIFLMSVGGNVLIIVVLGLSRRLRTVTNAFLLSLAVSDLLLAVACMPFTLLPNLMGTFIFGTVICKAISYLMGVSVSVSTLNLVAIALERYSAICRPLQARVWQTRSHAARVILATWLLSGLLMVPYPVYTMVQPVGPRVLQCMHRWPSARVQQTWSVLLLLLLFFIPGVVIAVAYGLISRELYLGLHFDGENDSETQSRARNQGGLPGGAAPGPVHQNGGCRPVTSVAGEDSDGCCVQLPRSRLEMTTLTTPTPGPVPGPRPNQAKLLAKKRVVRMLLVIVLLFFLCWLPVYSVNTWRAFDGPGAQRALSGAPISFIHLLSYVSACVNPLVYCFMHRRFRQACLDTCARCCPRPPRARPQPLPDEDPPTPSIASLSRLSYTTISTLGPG
Procedure: IC50 values of all compounds were determined according to a previously published procedure. In brief, competitive binding studies were performed via co-incubation of increasing concentrations of the peptide of interest (10^−10 to 10^–4 M, in triplicate) together with the reference compound [^177Lu]Lu-DOTA-PP-F11N (0.3 pmol/well) on AR42J cells (2 × 10^5 cells per 1 mL/well) at 37 °C for 3 h. Table S1. CCK-2R affinity and lipophilicity data of the compounds evaluated. Affinity data were determined on AR42J cells (2.0 x 10^5 cells/well/mL) and [^177Lu]Lu-DOTA-PP-F11N (0.3 pmol/well) as radiolabeled reference (3 h, 37°C, RPMI 1640, 5 mM L-Gln, 5 mL non-essential amino acids (100x), 10% FCS + 5% BSA (v/v)).

[2] = assay type: physicochemical; conditions: pH 7.4
Procedure: Lipophilicity (depicted as n-octanol-phosphate-buffered saline solution (PBS, pH = 7.4) distribution coefficient, logD7.4) of ^177Lu-labeled minigastrin analogs was evaluated as previously published.

[3] = 2.0 x 10^5 cells/well/mL, [177Lu]Lu-DOTA-PP-F11N 0.3 pmol/well as reference, 37°C, natLu-labeled DOTA peptides, tetrapeptides unlabeled, read-out: IC50

logD [2] | logD7.4 [2] | SMILES | other results
 |  | CCCC[C@H](NC(=O)[C@@H](N)Cc1c[nH]c2ccccc12)C(=O)N[C@@H](CC(=O)O)C(=O)N[C@@H](Cc1cccc2ccccc12)C(N)=O [B1, H-Trp-Nle-Asp-1-Nal-NH2] (H-W[Nle]D[1Nal]-NH2) | IC50 [1, 3]: 297 ± 15 nM; fold elevated IC50 value versus N-methylated tetrapeptides [1]: 50 fold; CCK-2R affinity (in words) [1]: significant loss in CCK-2R affinity; also recorded: low CCK-2R affinity
 |  | CCCC[C@H](NC(=O)[C@@H](N)Cc1c[nH]c2ccccc12)C(=O)N[C@@H](CC(=O)O)C(=O)N[C@@H](Cc1ccccc1)C(N)=O [B2, H-Trp-Nle-Asp-Phe-NH2] (H-W[Nle]DF-NH2) | IC50 [1, 3]: 466 ± 88 nM; CCK-2R affinity (in words) [1]: significant loss in CCK-2R affinity; CCK-2R affinity (in words) ([1]; listed as H-Trp-Nle-Asp-Phe-NH2): noticeably decreased CCK-2R affinity
 |  | CCCC[C@@H](C(=O)N[C@@H](CC(=O)O)C(=O)N[C@@H](Cc1cccc2ccccc12)C(N)=O)N(C)C(=O)[C@@H](N)Cc1c[nH]c2ccccc12 [B3, H-Trp-(N-Me)Nle-Asp-1-Nal-NH2] (H-W[NMeNle]D[1Nal]-NH2) | CCK-2R affinity (in words) [1]: CCK-2R affinities in the low nanomolar range
 |  | CCCC[C@@H](C(=O)N[C@@H](CC(=O)O)C(=O)N[C@@H](Cc1ccccc1)C(N)=O)N(C)C(=O)[C@@H](N)Cc1c[nH]c2ccccc12 [B4, H-Trp-(N-Me)Nle-Asp-Phe-NH2] (H-W[NMeNle]DF-NH2) | CCK-2R affinity (in words) [1]: CCK-2R affinities in the low nanomolar range
 |  | CCCC[C@@H](C(=O)N[C@@H](CC(=O)O)C(=O)N[C@@H](Cc1ccc2ccccc2c1)C(N)=O)N(C)C(=O)[C@@H](N)Cc1c[nH]c2ccccc12 [B5, H-Trp-(N-Me)Nle-Asp-2-Nal-NH2] (H-W[NMeNle]D[2Nal]-NH2) | fold elevated IC50 value versus N-methylated tetrapeptides [1]: 3.5- to 19 fold
 |  | CCCC[C@@H](C(=O)N[C@@H](CC(=O)O)C(=O)N[C@@H](Cc1ccc(O)cc1)C(N)=O)N(C)C(=O)[C@@H](N)Cc1c[nH]c2ccccc12 [B6, H-Trp-(N-Me)Nle-Asp-Tyr-NH2] (H-W[NMeNle]DY-NH2) | CCK-2R affinity (in words) [1]: CCK-2R affinities in the low nanomolar range
 |  | CCCC[C@@H](C(=O)N[C@@H](CC(=O)O)C(=O)N[C@@H](Cc1c[nH]c2ccccc12)C(N)=O)N(C)C(=O)[C@@H](N)Cc1c[nH]c2ccccc12 [B7, H-Trp-(N-Me)Nle-Asp-Trp-NH2] (H-W[NMeNle]DW-NH2) | fold elevated IC50 value versus N-methylated tetrapeptides [1]: 3.5- to 19 fold
-2.09 ± 0.07 | ‒2.7 to ‒2.1 | CCCC[C@@H](C(=O)N[C@@H](CC(=O)O)C(=O)N[C@@H](Cc1cccc2ccccc12)C(N)=O)N(C)C(=O)[C@H](Cc1c[nH]c2ccccc12)NC(=O)CNC(=O)CNC(=O)CNC(=O)CNC(=O)CN1CCN(CC(=O)O)CCN(CC(=O)O)CCN(CC(=O)O)CC1 [[^nat/177Lu]Lu-DOTA-CCK-55, metal not drawn] ({DOTA}-GGGGW[NMeNle]D[1Nal]-NH2) | 
-1.38 ± 0.07 | − 1.9 to − 1.2 | CCCC[C@@H](C(=O)N[C@@H](CC(=O)O)C(=O)N[C@@H](Cc1cccc2ccccc12)C(N)=O)N(C)C(=O)[C@H](Cc1c[nH]c2ccccc12)NC(=O)CNC(=O)[C@H](Cc1ccc(O)cc1)NC(=O)CNC(=O)CNC(=O)CN1CCN(CC(=O)O)CCN(CC(=O)O)CCN(CC(=O)O)CC1 [[^nat/177Lu]Lu-DOTA-CCK-56, metal not drawn] ({DOTA}-GGYGW[NMeNle]D[1Nal]-NH2) | 
-1.94 ± 0.06 | − 1.9 to − 1.2 | CCCC[C@@H](C(=O)N[C@@H](CC(=O)O)C(=O)N[C@@H](Cc1cccc2ccccc12)C(N)=O)N(C)C(=O)[C@H](Cc1c[nH]c2ccccc12)NC(=O)CNC(=O)CNC(=O)[C@H](C)NC(=O)CNC(=O)CN1CCN(CC(=O)O)CCN(CC(=O)O)CCN(CC(=O)O)CC1 [[^nat/177Lu]Lu-DOTA-CCK-57, metal not drawn] ({DOTA}-GAGGW[NMeNle]D[1Nal]-NH2) | IC50 [1, 3]: 9.67 ± 1.74 nM
-2.66 ± 0.06 | ‒2.7 to ‒2.1 | CCCC[C@@H](C(=O)N[C@@H](CC(=O)O)C(=O)N[C@@H](Cc1cccc2ccccc12)C(N)=O)N(C)C(=O)[C@H](Cc1c[nH]c2ccccc12)NC(=O)CNC(=O)CNC(=O)CNC(=O)CC[C@@H](NC(=O)CN1CCN(CC(=O)O)CCN(CC(=O)O)CCN(CC(=O)O)CC1)C(=O)O [[^nat/177Lu]Lu-DOTA-CCK-58, metal not drawn] ({DOTA-d(γGlu)}-GGGW[NMeNle]D[1Nal]-NH2) | 
-1.26 ± 0.08 | − 1.9 to − 1.2 | CCCC[C@@H](C(=O)N[C@@H](CC(=O)O)C(=O)N[C@@H](Cc1cccc2ccccc12)C(N)=O)N(C)C(=O)[C@H](Cc1c[nH]c2ccccc12)NC(=O)CNC(=O)[C@H](Cc1ccc(O)cc1)NC(=O)[C@H](C)NC(=O)CNC(=O)CN1CCN(CC(=O)O)CCN(CC(=O)O)CCN(CC(=O)O)CC1 [[^nat/177Lu]Lu-DOTA-CCK-59, metal not drawn] ({DOTA}-GAYGW[NMeNle]D[1Nal]-NH2) | 
-2.63 ± 0.05 | ‒2.7 to ‒2.1 | CCCC[C@@H](C(=O)N[C@@H](CC(=O)O)C(=O)N[C@@H](Cc1cccc2ccccc12)C(N)=O)N(C)C(=O)[C@H](Cc1c[nH]c2ccccc12)NC(=O)CNC(=O)[C@H](Cc1ccc(O)cc1)NC(=O)CNC(=O)CC[C@@H](NC(=O)CN1CCN(CC(=O)O)CCN(CC(=O)O)CCN(CC(=O)O)CC1)C(=O)O [[^nat/177Lu]Lu-DOTA-CCK-60, metal not drawn] ({DOTA-d(γGlu)}-GYGW[NMeNle]D[1Nal]-NH2) | 
-2.56 ± 0.09 | ‒2.7 to ‒2.1 | CCCC[C@@H](C(=O)N[C@@H](CC(=O)O)C(=O)N[C@@H](Cc1cccc2ccccc12)C(N)=O)N(C)C(=O)[C@H](Cc1c[nH]c2ccccc12)NC(=O)CNC(=O)CNC(=O)[C@H](C)NC(=O)CC[C@@H](NC(=O)CN1CCN(CC(=O)O)CCN(CC(=O)O)CCN(CC(=O)O)CC1)C(=O)O [[^nat/177Lu]Lu-DOTA-CCK-61, metal not drawn] ({DOTA-d(γGlu)}-AGGW[NMeNle]D[1Nal]-NH2) | 
-1.34 ± 0.08 | − 1.9 to − 1.2 | CCCC[C@@H](C(=O)N[C@@H](CC(=O)O)C(=O)N[C@@H](Cc1cccc2ccccc12)C(N)=O)N(C)C(=O)[C@H](Cc1c[nH]c2ccccc12)NC(=O)CNC(=O)CN1CCN(CC(=O)O)CCN(CC(=O)O)CCN(CC(=O)O)CC1 [[^nat/177Lu]Lu-DOTA-CCK-62, DOTA-Gly-Trp-(N-Me)Nle-Asp-1-Nal-NH2, metal not drawn] ({DOTA}-GW[NMeNle]D[1Nal]-NH2) | 
-2.13 ± 0.05 |  | CCCC[C@@H](C(=O)N[C@@H](CC(=O)O)C(=O)N[C@@H](Cc1cccc2ccccc12)C(N)=O)N(C)C(=O)[C@H](Cc1c[nH]c2ccccc12)NC(=O)CCOCCOCCOCCOCCOCCNC(=O)CN1CCN(CC(=O)O)CCN(CC(=O)O)CCN(CC(=O)O)CC1 [[^nat/177Lu]Lu-DOTA-CCK-63, metal not drawn] ({DOTA-PEG5}-W[NMeNle]D[1Nal]-NH2) | IC50 ([1]; [177Lu]Lu-DOTA-PP-F11N as reference, 37 °C, values in text, read-out: IC50 (CCK-2R affinity)): 8.8 ± 1.3 nM
-2.24 ± 0.04 | − 2.24 ± 0.04 | CCCC[C@@H](C(=O)N[C@@H](CC(=O)O)C(=O)N[C@@H](Cc1cccc2ccccc12)C(N)=O)N(C)C(=O)[C@H](Cc1c[nH]c2ccccc12)NC(=O)CNC(=O)[C@H](Cc1ccc(O)cc1)NC(=O)[C@H](C)NC(=O)CC[C@@H](NC(=O)CN1CCN(CC(=O)O)CCN(CC(=O)O)CCN(CC(=O)O)CC1)C(=O)O [[^nat/177Lu]Lu-DOTA-γ-MGS5, DOTA-D-γ-Glu-Ala-Tyr-Gly-Trp-(N-Me)Nle-Asp-1-Nal-NH2, metal not drawn, reference compound] ({DOTA-d(γGlu)}-AYGW[NMeNle]D[1Nal]-NH2) | 
